From the Deep4Chem optical property database come the findings set out here.

Each structure is given as a SMILES string.

The nature of this series: solvent given as SMILES.

Take `CCC1(CC)c2cc(/C=C/c3ccc(/C=C/c4ccc5c(c4)C(CC)(CC)c4cc(N6c7ccccc7Sc7ccccc76)ccc4-5)cc3)ccc2-c2ccc(N3c4ccccc4Sc4ccccc43)cc21`: the absorption maximum came out at 444.73 nm (in C1CCOC1); 441.5 nm (in CC#N); 440.65 nm (in CCCCCC); 446.43 nm (in Cc1ccccc1); 418 nm (in ClCCl).

The compound `C=C` displayed an absorption maximum (in CCCCCCC) of 162 nm.

Consider `C1=Cc2ccccc2C(=Cc2ccc(-c3ccc(C=C4c5ccccc5C=Cc5ccccc54)cc3)cc2)c2ccccc21`, for which the absorption maximum (in C1CCOC1) is recorded as 339 nm.

As for `CCCCCCOc1cc(/C=C/c2cc(OCCCCCC)c(/C=C/c3cc(OCCCCCC)c(C=C4C(=C(C#N)C#N)c5ccccc5C4=C(C#N)C#N)cc3OCCCCCC)cc2OCCCCCC)c(OCCCCCC)cc1C=C1C(=C(C#N)C#N)c2ccccc2C1=C(C#N)C#N`, the absorption maximum (in ClCCl) came to 640 nm.

`NC(=O)C1=CN([C@H]2C[C@H](O)[C@@H](COP(=O)([O-])OP(=O)([O-])OC[C@H]3O[C@@H](n4cnc5c(N)ncnc54)C[C@@H]3O)O2)C=CC1`: the absorption maximum (in O) was 350 nm.

On to `CCCCNc1nc(/C=C/c2ccccc2)[n+]([O-])c2c1CCCC2`, for which, under “in ClCCl”, the absorption maximum is 415 nm.

The compound `CN(C)c1ccc(C2=[N+]3C(=Nc4c5ccccc5c(-c5ccc(N(C)C)cc5)n4[B-]3(F)F)c3ccccc32)cc1` registered an absorption maximum (in ClCCl) of 794 nm.

For the compound `CC1=CC(C)=[N+]2C1=C(c1c3ccccc3c(C)c3ccccc13)c1c(C)cc(C)n1[B-]2(F)F`, the absorption maximum reads like this: (in CC#N) 503 nm; (in CCCCCC) 505 nm; (in CCO) 504 nm; (in CN(C)C=O) 506 nm; (in Cc1ccccc1) 509 nm; (in ClCCl) 506 nm.

For the compound `CC1(CCCCC(=O)NCCCCCCO)C(/C=C/C=C/C=C2/N(CCCS(=O)(=O)[O-])c3ccc(S(=O)(=O)[O-])cc3C2(C)C)=[N+](CCCS(=O)(=O)[O-])c2ccc(S(=O)(=O)[O-])cc21` (configuration not stated), the absorption maximum (in O) worked out at 651 nm.

Turning to `NC(=O)CC[C@H](/[NH+]=C\C=C1\C=C(C(=O)O)N[C@H](C(=O)O)C1)C(=O)O`, the absorption maximum is, setting by setting: (in CCO) 474 nm; (in CO) 471 nm; (in O) 475 nm; (in OCC(F)(F)F) 473 nm; (in OCCO) 478 nm.

Take `N#Cc1ccc(-c2cn3cc(-c4ccccc4)c[n+]3[n-]2)cc1`: where the note is “in ClCCl”, the absorption maximum worked out at 383 nm.

Compound `CCCCn1/c(=C/C=C/C2=[N+](C)c3ccccc3C2(C)C)c2cccc3cccc1c32` came in with an absorption maximum (in CS(C)=O) of 672 nm.

In turn, `O=C1c2ccccc2C(=O)c2cc(-c3ccc(N(c4ccccc4)c4ccccc4)cc3)ccc21` showed an absorption maximum (in C1CCOC1) of 447 nm; an absorption maximum (in CCCCCC) of 442 nm; an absorption maximum (in CCOC(C)=O) of 446 nm; an absorption maximum (in CCOCC) of 443 nm; an absorption maximum (in Cc1ccccc1) of 454 nm; an absorption maximum (in ClC(Cl)(Cl)Cl) of 457 nm. Moreover, the absorption maximum (in ClCCl) is recorded as 459 nm.

Consider `COC1=[N+]2C(=C(c3ccccc3)c3ccc(OC)n3[B-]2(F)F)C=C1`, for which the absorption maximum runs as follows: (in CC#N) 510 nm; (in CCCCCC) 513 nm; (in CCOC(C)=O) 512 nm; (in CO) 511 nm; (in ClCCl) 515 nm.

Regarding `CCN1c2ccc(/C=N/Nc3ccccn3)cc2Sc2cc(-c3ccc(C#N)cc3)ccc21`, the absorption maximum is, setting by setting: (in C1CCOC1) 383 nm; (in CS(C)=O) 398 nm; (in Cc1ccccc1) 386 nm; (in ClCCl) 388 nm.

Take `CCC1(CC)c2ccccc2-c2ccc(C#Cc3ccc4ccc5cccc6ccc3c4c56)cc21`: the absorption maximum by setting is: (in C1CCCCC1) 401 nm; (in C1CCOC1) 402 nm; (in CC#N) 399 nm; (in CCOC(C)=O) 400 nm; (in CN(C)C=O) 404 nm; (in Cc1ccccc1) 405 nm. The absorption maximum (in ClC(Cl)Cl) is 404 nm and the absorption maximum (in ClCCl) was determined as 403 nm.

Take `N#Cc1ccc(C2=CC3=c4cc(-c5ccc(C#N)cc5)c5nc(C(F)(F)C(F)(F)C(F)(F)F)nc6c(-c7ccc(C#N)cc7)cc(c4c65)C4=CC(c5ccc(C#N)cc5)=C5N=C(C(F)(F)C(F)(F)C(F)(F)F)N=C2C5C43)cc1` (configuration not stated): the absorption maximum (in C1CCOC1) amounted to 492 nm.

In turn, `Cc1nc2cccc(-c3nc4ccccc4s3)c2c(=O)[nH]1` had an absorption maximum (in CN(C)C=O) of 319 nm.

Take `COc1ccc(/C=C/c2cc[n+]3ccc(/C=C/c4ccc(OC)cc4)cc3c2)cc1`: where the note is “in CO”, the absorption maximum is recorded as 444 nm.

In turn, `CCCCCCOc1cc(/C=C2\C(=O)c3ccccc3C2=C(C#N)C#N)c(OCCCCCC)cc1/C=C1\C(=O)c2ccccc2C1=C(C#N)C#N` had an absorption maximum (in ClCCl) of 548 nm.

Take `CN(C)c1ccc(C=C/C=C/C=C/c2ccc(C#N)cc2)cc1`: the absorption maximum was determined as 420 nm (in C1CCOC1); 418 nm (in CC#N); 422 nm (in CCCC#N); 412 nm (in CCCCCC); 416 nm (in CCCCOCCCC); 418 nm (in CCO). In addition, the absorption maximum (in CCOCC) is 416 nm.

On to `CCOC(=O)CCCCCn1c2ccccc2c(=O)c2cc(I)ccc21`, for which the absorption maximum (in CO) worked out at 414 nm.

Consider `CCCCCCCCCCCCN1C(=O)c2c(c3ccc4cc(-c5ccc(N(C)C)cc5)c(OC)cc4c3c3c2ccc2cc(-c4ccc(N(C)C)cc4)c(OC)cc23)C1=O`, for which, for the setting “in ClCCl”, the absorption maximum is reported as 477 nm.

The compound `c1ccc(N(c2ccccc2)c2ccc(-c3cnc(-c4ccncc4)s3)cc2)cc1` came in with an absorption maximum (in CO) of 403 nm.

As for `O=c1cc2cc(O)c3cc(O)cc4ccc(o1)c2c43`, the absorption maximum (in CC1CCCO1) is 476 nm.

As for `COc1cccc(-c2nc3c([nH]2)C2=CC(=O)S[C@]2(C)[C@@]2(C)SC(=O)C=C32)c1OC`, the absorption maximum (in CC#N) is 397 nm.

For `CC1=CC(C)=[N+]2C1=C(c1ccc(-c3c4ccccc4c(-c4ccccc4)c4ccccc34)cc1)c1c(C)cc(C)n1[B-]2(F)F`, the absorption maximum reads like this: (in CC#N) 499 nm; (in CCCCCC) 502 nm; (in CCO) 500 nm; (in CN(C)C=O) 500 nm; (in Cc1ccccc1) 504 nm; (in ClCCl) 502 nm.

Turning to `COC(=O)C(NC(=O)OC(C)(C)C)c1ccc2oc(-c3cc(OC)c(OC)c(OC)c3)nc2c1` (configuration not stated), the absorption maximum reads like this: (in CC1CCCCC1) 327 nm; (in CC#N) 312 nm; (in CO) 313 nm.

Consider `Cc1ccc(N(c2ccc(C)cc2)c2ccc(-c3c4ccccc4c(-c4ccc(N(c5ccc(C)cc5)c5ccc(C)cc5)cc4)c4nsnc34)cc2)cc1`, for which the absorption maximum was 538 nm (in Cc1ccccc1) and 536 nm (in ClCCl).

Take `CC[N+]1(CC)CN2C(=N1)C(C(=O)O)=Cc1cc(C)ccc12`: the absorption maximum (in O) is given as 379 nm.

In turn, `C[n+]1c2c(c(-c3ccccc3)c3c1CCCC3)CCCC2` came in with an absorption maximum (in CCO) of 340.03 nm.

For the setting “in Cc1ccccc1”, `c1ccc(-c2nc(-c3ccccc3)nc(-c3ccc(N4c5ccccc5C5(c6ccccc64)c4ccccc4N(c4ccc(-c6nc(-c7ccccc7)nc(-c7ccccc7)n6)cc4)c4ccccc45)cc3)n2)cc1` returned an absorption maximum of 400 nm.

As for `COc1cc(C(=O)O)cc(OC)c1O`, the absorption maximum (in O) was 260 nm.

As for `CCN(CC)c1ccc2cc(C#N)c(=N)oc2c1`, where the note is “in ClCCl”, the absorption maximum came out at 428 nm.

Consider `CCC1(CC)c2cc(-c3ccc(-c4ccc5c(c4)C(CC)(CC)c4cc(C(C)(C)C)ccc4-5)cc3)ccc2-c2ccc(C(C)(C)C)cc21`, for which, where the note is “in CO”, the absorption maximum was determined as 332.42 nm.

`C[C@@]12SC(Cl)=CC1=c1nc(-c3ccccc3)[nH]c1=C1C=C(Cl)S[C@]12C` yielded an absorption maximum (in CC#N) of 322 nm.

Regarding `O=C(O)CCCCCn1c2ccccc2c(=O)c2cc(S(=O)(=O)O)ccc21`, the absorption maximum (in O) was determined as 409 nm.

In turn, `c1cc2ccc3[o+]c4ccc5cccc6c7cccc8c(c1)c2c3c(c87)c4c56` yielded an absorption maximum (in ClCCl) of 573 nm.

For `O=c1c2ccccc2c2nc3cc4c(C#C[Si](C5CCCCC5)(C5CCCCC5)C5CCCCC5)c5cc6nc7c8ccccc8c(=O)c8ccccc8c7nc6cc5c(C#C[Si](C5CCCCC5)(C5CCCCC5)C5CCCCC5)c4cc3nc2c2ccccc12`, the absorption maximum (in ClCCl) turned out to be 731 nm.

`CC1(C)C(/C=C/C2=C(Cl)C(=C/C=C3/N(CCCCCC(=O)O)c4ccccc4C3(C)C)/CCC2)=[N+](CCCCCC(=O)O)c2ccccc21`: under “in CO”, the absorption maximum is listed as 782 nm.

Take `Cc1ccc(C#Cc2ccc3ccc4cccc5ccc2c3c45)cc1`: the absorption maximum is, setting by setting: (in CCCCCC) 362 nm; (in CCO) 362 nm; (in CCOC(C)=O) 362 nm; (in ClCCl) 365 nm.

The compound `c1ccc([B-]23Oc4ccccc4-c4c5[n+]6c(c([n+]42)-c2ccccc2O3)-c2ccccc2O[B-]6(c2ccccc2)Oc2ccccc2-5)cc1` had an absorption maximum (in ClCCl) of 574 nm.

As for `Cc1ccc(NC(=O)c2sc(Br)nc2C)cc1`, the absorption maximum is, setting by setting: (in C1CCOC1) 301.5 nm; (in CC#N) 281.6 nm; (in CCCCCC) 286.9 nm; (in CCOC(C)=O) 286.1 nm; (in CN(C)C=O) 287.1 nm; (in CO) 282.1 nm. The absorption maximum (in CS(C)=O) is 283.5 nm and the absorption maximum (in ClC(Cl)Cl) stood at 288.3 nm.

For the compound `COc1ccc2cc(C3=[N+]4C(=Nc5c(-c6ccccc6)cc(-c6ccc7cc(OC)ccc7c6)n5[B-]4(F)F)C(c4ccccc4)=C3)ccc2c1`, the absorption maximum is, setting by setting: (in ClC(Cl)Cl) 706 nm; (in ClCCl) 706 nm.
